Test results reported in US20230233569A1 (Revolution Medicines, Inc., priority 2020, published 2023).

Key:
KRAS G12C = KRAS G12C (Homo sapiens, UniProt P01116+P62937, G12C); assay: Ras-Raf disruption / FRET / MOA assay (BRAF RBD); format: biochemical; settings: KRAS G12C FRET data IC50, Ras-Raf disruption, with Cyclophilin A
Summary of the method: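 His6-K-Ras G12C-GMPPNP (12.5 nM), GST-BRAF RBD (50 nM) and tagless Cyclophilin A (25 μM) incubated 3 h at 25 °C with compound (10-point 3-fold series from 30 μM), pH 7.3 HEPES buffer. Anti-His Eu/anti-GST APC added for 1.5 h; decreased TR-FRET ratio vs DMSO gives IC50.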

NRAS G12C = NRAS G12C (Homo sapiens, UniProt P01111+P62937, G12C); assay: Ras-Raf disruption / FRET / MOA assay (BRAF RBD); format: biochemical; settings: NRAS G12C FRET data IC50, NRAS G12C
Chain of NRAS G12C (P01111 whole entry G12C): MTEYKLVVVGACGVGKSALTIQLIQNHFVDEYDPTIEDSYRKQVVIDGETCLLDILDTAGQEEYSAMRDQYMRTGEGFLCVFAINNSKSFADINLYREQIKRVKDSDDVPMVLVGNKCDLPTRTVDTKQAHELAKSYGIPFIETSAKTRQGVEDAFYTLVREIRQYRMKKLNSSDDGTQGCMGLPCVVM
Chain of NRAS G12C (P62937 whole entry): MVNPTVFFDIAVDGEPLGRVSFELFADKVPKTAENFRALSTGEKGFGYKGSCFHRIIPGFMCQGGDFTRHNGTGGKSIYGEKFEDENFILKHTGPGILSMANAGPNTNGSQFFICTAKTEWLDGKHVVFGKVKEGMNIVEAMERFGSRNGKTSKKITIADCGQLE
Summary of the method: (§1)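 TR-FRET in 25 mM HEPES pH 7.3, 100 mM NaCl, 5 mM MgCl2, 0.1% BSA, 0.002% Tween20 with 25 μM Cyclophilin A, 12.5 nM His6-Ras-GMPPNP, 50 nM GST-BRAF RBD; compound 10-point 3-fold series from 30 μM. After 3 h at 25 °C, Eu anti-His/APC anti-GST added for 1.5 h; IC50 from ratio decrease versus DMSO.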

NRAS Q61R = NRAS Q61R (Homo sapiens, UniProt P01111+P62937, Q61R); assay: Ras-Raf disruption / FRET / MOA assay (BRAF RBD); format: biochemical
Chain of NRAS Q61R (P01111 whole entry Q61R): as the sequence (P01111 whole entry G12C) above, with C12G, Q61R counted along it
Chain of NRAS Q61R (P62937 whole entry): as the sequence (P62937 whole entry) above
Summary of the method: as §1

KRAS Q61H = KRAS Q61H (Homo sapiens, UniProt P01116+P62937, Q61H); assay: Ras-Raf disruption / FRET / MOA assay (BRAF RBD); format: biochemical
Chain of KRAS Q61H (P01116 1-169 isoform P01116-2 Q61H limits assumed): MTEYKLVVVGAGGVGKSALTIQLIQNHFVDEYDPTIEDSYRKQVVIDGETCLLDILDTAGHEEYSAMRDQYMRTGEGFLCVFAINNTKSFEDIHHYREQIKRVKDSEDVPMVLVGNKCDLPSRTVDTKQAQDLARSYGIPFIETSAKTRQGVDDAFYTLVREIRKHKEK
Chain of KRAS Q61H (P62937 whole entry): as the sequence (P62937 whole entry) above
Summary of the method: as §1

NRAS WT = NRAS WT (Homo sapiens, UniProt P01111+P62937); assay: Ras-Raf disruption / FRET / MOA assay (BRAF RBD); format: biochemical
Chain of NRAS WT (P01111 whole entry): as the sequence (P01111 whole entry G12C) above, with C12G counted along it
Chain of NRAS WT (P62937 whole entry): as the sequence (P62937 whole entry) above
Summary of the method: as §1

KRAS G12D = KRAS G12D (Homo sapiens, UniProt P01116+P62937, G12D); assay: Ras-Raf disruption / FRET / MOA assay (BRAF RBD); format: biochemical; settings: KRAS G12D FRET data IC50, Ras-Raf disruption, with Cyclophilin A
Chain of KRAS G12D (P01116 1-169 isoform P01116-2 G12D limits assumed): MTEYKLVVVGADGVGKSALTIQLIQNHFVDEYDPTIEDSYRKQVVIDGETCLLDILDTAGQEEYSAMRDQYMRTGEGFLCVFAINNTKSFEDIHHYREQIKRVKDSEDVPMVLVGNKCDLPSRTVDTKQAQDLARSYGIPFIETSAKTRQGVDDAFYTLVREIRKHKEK
Chain of KRAS G12D (P62937 whole entry): as the sequence (P62937 whole entry) above
Summary of the method: as §1

KRAS G12S = KRAS G12S (Homo sapiens, UniProt P01116+P62937, G12S); assay: Ras-Raf disruption / FRET / MOA assay (BRAF RBD); format: biochemical; settings: KRAS G12S FRET data IC50, Ras-Raf disruption, with Cyclophilin A
Chain of KRAS G12S (P01116 1-169 isoform P01116-2 G12S limits assumed): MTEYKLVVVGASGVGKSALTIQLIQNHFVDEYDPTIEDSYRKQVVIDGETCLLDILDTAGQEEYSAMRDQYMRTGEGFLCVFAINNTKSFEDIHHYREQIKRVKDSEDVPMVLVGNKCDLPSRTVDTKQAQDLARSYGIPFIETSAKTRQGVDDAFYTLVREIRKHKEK
Chain of KRAS G12S (P62937 whole entry): as the sequence (P62937 whole entry) above
Summary of the method: as §1

KRAS G12V = KRAS G12V (Homo sapiens, UniProt P01116+P62937, G12V); assay: Ras-Raf disruption / FRET / MOA assay (BRAF RBD); format: biochemical; settings: KRAS G12V FRET data IC50, Ras-Raf disruption, with Cyclophilin A
Chain of KRAS G12V (P01116 1-169 isoform P01116-2 G12V limits assumed): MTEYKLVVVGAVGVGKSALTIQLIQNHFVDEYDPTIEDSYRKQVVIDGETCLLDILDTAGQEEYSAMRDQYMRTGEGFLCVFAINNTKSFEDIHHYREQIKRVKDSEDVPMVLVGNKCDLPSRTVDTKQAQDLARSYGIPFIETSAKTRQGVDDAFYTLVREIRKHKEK
Chain of KRAS G12V (P62937 whole entry): as the sequence (P62937 whole entry) above
Summary of the method: as §1

KRAS G13D = KRAS G13D (Homo sapiens, UniProt P01116+P62937, G13D); assay: Ras-Raf disruption / FRET / MOA assay (BRAF RBD); format: biochemical; settings: KRAS G13D FRET data IC50, Ras-Raf disruption, with Cyclophilin A
Chain of KRAS G13D (P01116 1-169 isoform P01116-2 G13D limits assumed): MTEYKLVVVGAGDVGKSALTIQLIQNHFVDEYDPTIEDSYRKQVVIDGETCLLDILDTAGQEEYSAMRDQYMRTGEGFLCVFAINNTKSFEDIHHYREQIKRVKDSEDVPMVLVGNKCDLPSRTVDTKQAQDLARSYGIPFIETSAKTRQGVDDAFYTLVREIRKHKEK
Chain of KRAS G13D (P62937 whole entry): as the sequence (P62937 whole entry) above
Summary of the method: as §1

KRAS WT = KRAS WT (Homo sapiens, UniProt P01116+P62937); assay: Ras-Raf disruption / FRET / MOA assay (BRAF RBD); format: biochemical; settings: KRAS WT FRET data IC50, Ras-Raf disruption, with Cyclophilin A
Chain of KRAS WT (P01116 1-169 isoform P01116-2 limits assumed): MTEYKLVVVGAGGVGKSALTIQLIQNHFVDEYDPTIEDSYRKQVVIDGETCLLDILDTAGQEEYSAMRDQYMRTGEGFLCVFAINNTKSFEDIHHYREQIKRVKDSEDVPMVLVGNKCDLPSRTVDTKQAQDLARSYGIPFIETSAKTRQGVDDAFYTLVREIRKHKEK
Chain of KRAS WT (P62937 whole entry): as the sequence (P62937 whole entry) above
Summary of the method: as §1

KRAS G13C = KRAS G13C (Homo sapiens, UniProt P01116+P62937, G13C); assay: Ras-Raf disruption / FRET / MOA assay (BRAF RBD); format: biochemical; settings: KRAS G13C FRET data IC50, Ras-Raf disruption, with Cyclophilin A
Chain of KRAS G13C (P01116 1-169 isoform P01116-2 G13C limits assumed): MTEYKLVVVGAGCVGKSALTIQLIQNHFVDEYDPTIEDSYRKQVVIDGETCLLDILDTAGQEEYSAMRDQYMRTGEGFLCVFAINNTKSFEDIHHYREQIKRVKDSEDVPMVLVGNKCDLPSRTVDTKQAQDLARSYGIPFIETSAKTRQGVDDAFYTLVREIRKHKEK
Chain of KRAS G13C (P62937 whole entry): as the sequence (P62937 whole entry) above
Summary of the method: as §1

NRAS Q61K = NRAS Q61K (Homo sapiens, UniProt P01111+P62937, Q61K); assay: Ras-Raf disruption / FRET / MOA assay (BRAF RBD); format: biochemical
Chain of NRAS Q61K (P01111 whole entry Q61K): as the sequence (P01111 whole entry G12C) above, with C12G, Q61K counted along it
Chain of NRAS Q61K (P62937 whole entry): as the sequence (P62937 whole entry) above
Summary of the method: as §1

AsPC-1 (K-Ras G12D) [1] = assay: CellTiter-Glo cell viability assay; format: cell-based; settings: Homo sapiens, ASPC1, 120 h, read-out: AsPC-1 Cell Viability assay data IC50, K-Ras G12D, 5-day treatment
Summary of the method: (§2)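 Compounds dispensed directly onto seeded AsPC-1 (K-Ras G12D) or NCI-H358 (K-Ras G12C) cells; CellTiter-Glo luminescence read on day 5 after ~30 min equilibration to room temperature. Signal normalized to DMSO average (%) and fit by four-parameter logistic.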

NCI-H358 (K-Ras G12C) = assay: CellTiter-Glo cell viability assay; format: cell-based; settings: Homo sapiens, NCI-H358, 120 h, read-out: H358 Cell Viability assay data IC50, K-Ras G12C, 5-day treatment
Summary of the method: as §2

AsPC-1 (K-Ras G12D) [2] = assay: Potency assay: pERK; format: cell-based; settings: Homo sapiens, ASPC1, read-out: pERK EC50

Chain of KRAS G12C (P01116 1-169 isoform P01116-2 G12C limits assumed): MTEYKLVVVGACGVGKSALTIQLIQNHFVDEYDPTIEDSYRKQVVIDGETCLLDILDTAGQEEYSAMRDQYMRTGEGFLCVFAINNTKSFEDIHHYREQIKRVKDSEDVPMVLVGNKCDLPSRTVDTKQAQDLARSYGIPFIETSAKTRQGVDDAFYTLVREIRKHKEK
Chain of KRAS G12C (P62937 whole entry): as the sequence (P62937 whole entry) above

Compound	IC50 (KRAS G12C) [µM]	IC50 (NRAS G12C) [µM]	IC50 (NRAS Q61R) [µM]	IC50 (KRAS Q61H) [µM]	IC50 (NRAS WT) [µM]	IC50 (KRAS G12D) [µM]	IC50 (KRAS G12S) [µM]	IC50 (KRAS G12V) [µM]	IC50 (KRAS G13D) [µM]	IC50 (KRAS WT) [µM]	IC50 (KRAS G13C) [µM]	IC50 (NRAS Q61K) [µM]	IC50 (AsPC-1 (K-Ras G12D) [1]) [µM]	IC50 (NCI-H358 (K-Ras G12C)) [µM]	EC50 (AsPC-1 (K-Ras G12D) [2]) [µM]
CCn1c(-c2cccnc2[C@H](C)OC)c2c3cc(ccc31)-c1cc(O)cc(c1)C[C@H](NC(=O)[C@H](C(C)C)N(C)C(=O)CN(C)C(=O)[C@H]1CN1CCCC#N)C(=O)N1CCC[C@H](N1)C(=O)OCC(C)(C)C2 (stereo partly drawn) [Example 273]	< 0.01	< 0.01	0.1 to 1	0.01 to 0.1	0.01 to 0.1	0.1 to 1	0.01 to 0.1	0.01 to 0.1	0.1 to 1	0.01 to 0.1	0.01 to 0.1	0.1 to 1	0.1 to 1	< 0.01	< 5
CCn1c(-c2cccnc2[C@H](C)OC)c2c3cc(ccc31)-c1cc(O)cc(c1)C[C@H](NC(=O)[C@H](C(C)C)N(C)C(=O)CN(C)C(=O)[C@@H]1CN1CCCC#N)C(=O)N1CCC[C@H](N1)C(=O)OCC(C)(C)C2 (stereo partly drawn) [Example 274]	< 0.01	< 0.01	0.1 to 1	0.01 to 0.1	0.01 to 0.1	0.01 to 0.1	0.01 to 0.1	0.01 to 0.1	0.01 to 0.1	0.01 to 0.1	0.01 to 0.1	0.1 to 1	0.1 to 1	< 0.01	< 5
CCn1c(-c2cccnc2[C@H](C)OC)c2c3cc(ccc31)-c1cc(O)cc(c1)C[C@H](NC(=O)[C@H](C(C)C)N(C)C(=O)CN(C)C(=O)[C@@H]1CN1C1COC1)C(=O)N1CCC[C@H](N1)C(=O)OCC(C)(C)C2 (stereo partly drawn) [Example 276]	0.01 to 0.1	< 0.01	0.1 to 1	0.01 to 0.1	0.01 to 0.1	0.01 to 0.1	0.01 to 0.1	0.01 to 0.1	0.01 to 0.1	0.01 to 0.1	0.01 to 0.1	0.1 to 1	1 to 10	0.01 to 0.1	< 5
CCn1c(-c2cccnc2[C@H](C)OC)c2c3cc(ccc31)-c1cc(O)cc(c1)C[C@H](NC(=O)[C@H](C(C)C)N(C)C(=O)CN(C)C(=O)[C@H]1CN1CC1COC1)C(=O)N1CCC[C@H](N1)C(=O)OCC(C)(C)C2 (stereo partly drawn) [Example 277]	0.01 to 0.1	0.01 to 0.1	1 to 10	0.01 to 0.1	0.1 to 1	0.1 to 1	0.01 to 0.1	0.1 to 1	0.1 to 1	0.1 to 1	0.01 to 0.1	0.1 to 1	0.1 to 1	0.01 to 0.1	< 5
CCn1c(-c2cccnc2[C@H](C)OC)c2c3cc(ccc31)-c1cc(O)cc(c1)C[C@H](NC(=O)[C@H](C(C)C)N(C)C(=O)CN(C)C(=O)[C@H]1CN1CC1(C)COC1)C(=O)N1CCC[C@H](N1)C(=O)OCC(C)(C)C2 (stereo partly drawn) [Example 279]	0.01 to 0.1	0.01 to 0.1	0.1 to 1	0.01 to 0.1	0.01 to 0.1	0.1 to 1	0.01 to 0.1	0.01 to 0.1	0.1 to 1	0.01 to 0.1	0.01 to 0.1	0.1 to 1	0.1 to 1	< 0.01	< 5
CCn1c(-c2cccnc2[C@H](C)OC)c2c3cc(ccc31)-c1cc(O)cc(c1)C[C@H](NC(=O)[C@H](C(C)C)N(C)C(=O)CN(C)C(=O)[C@@H]1CN1CC1(C)COC1)C(=O)N1CCC[C@H](N1)C(=O)OCC(C)(C)C2 (stereo partly drawn) [Example 280]	< 0.01	< 0.01	0.1 to 1	0.01 to 0.1	0.01 to 0.1	0.01 to 0.1	0.01 to 0.1	0.01 to 0.1	0.1 to 1	0.01 to 0.1	0.01 to 0.1	0.1 to 1	1 to 10	< 0.01	< 5
CCn1c(-c2cccnc2[C@H](C)OC)c2c3cc(ccc31)-c1cc(O)cc(c1)C[C@H](NC(=O)[C@H](C(C)C)N(C)C(=O)CN(C)C(=O)[C@@H]1N[C@H]1C1COC1)C(=O)N1CCC[C@H](N1)C(=O)OCC(C)(C)C2 [Example 283]	0.01 to 0.1	0.01 to 0.1	0.1 to 1	0.01 to 0.1	0.01 to 0.1	0.01 to 0.1	0.01 to 0.1	0.01 to 0.1	0.01 to 0.1	0.01 to 0.1	< 0.01	0.1 to 1	0.1 to 1	0.01 to 0.1	< 5
CCn1c(-c2cccnc2[C@H](C)OC)c2c3cc(ccc31)-c1cc(O)cc(c1)C[C@H](NC(=O)[C@H](C(C)C)N(C)C(=O)CN(C)C(=O)[C@@H]1N[C@@H]1C1CCC1)C(=O)N1CCC[C@H](N1)C(=O)OCC(C)(C)C2 [Example 287]	0.01 to 0.1	0.01 to 0.1	0.1 to 1	0.01 to 0.1	0.01 to 0.1	0.01 to 0.1	0.01 to 0.1	0.01 to 0.1	0.1 to 1	0.01 to 0.1	0.01 to 0.1	0.1 to 1	0.1 to 1	0.01 to 0.1	< 5
